From article PMC7298613, “Degradation of okadaic acid in seawater by UV/TiO2 photocatalysis – Proof of concept” (The Science of the Total Environment, 2020)

Target: T1, protein phosphatase-1 catalytic subunit (PP1c) (Oryctolagus cuniculus, UniProt P62139)
T1 construct: gene PPP1CA; catalytic subunit
Assay: colorimetric pNPP phosphatase inhibition assay, absorbance at […] nm, PP1 […]
Format: biochemical

T1 sequence (P62139 2-330): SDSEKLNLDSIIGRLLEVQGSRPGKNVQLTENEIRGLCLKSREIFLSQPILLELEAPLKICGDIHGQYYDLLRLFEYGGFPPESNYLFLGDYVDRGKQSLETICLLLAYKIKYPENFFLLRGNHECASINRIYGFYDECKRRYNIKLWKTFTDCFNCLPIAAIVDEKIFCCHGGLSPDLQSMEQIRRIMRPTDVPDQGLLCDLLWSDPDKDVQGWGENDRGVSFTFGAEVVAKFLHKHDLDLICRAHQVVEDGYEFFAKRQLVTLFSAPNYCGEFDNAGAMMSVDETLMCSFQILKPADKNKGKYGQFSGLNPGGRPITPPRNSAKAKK

## C=C1[C@@H](O)[C@@H]2O[C@]3(CC[C@H](/C=C/[C@@H](C)[C@@H]4CC(C)=C[C@@]5(O[C@H](C[C@@](C)(O)C(=O)O)CC[C@H]5O)O4)O3)CC[C@H]2O[C@@H]1[C@@H](O)C[C@H](C)[C@H]1O[C@@]2(CCCCO2)CC[C@H]1C [OA, okadaic acid]
  IC50: 1180 nM
